Reference: patent US20240316196A1, “METHODS AND COMPOSITIONS FOR DIFFERENTIATION OF PLURIPOTENT STEM CELLS AND DERIVED NATURAL KILLER CELLS” (NUWACELL BIOTECHNOLOGIES CO., LTD., priority 2022, published 2024)

Key:
Format in all cases: cell-based
K562 cells = test: Cytotoxicity of Stage 3 iNK cells towards K562 cells (CFSE/7AAD assay); settings: added to Stage 3 medium (IL-10 20 ng/mL, IL-18 50 ng/mL); 4 hr co-culture, E:T 3:1 (FIG. 13A)
Procedure: hiPSCs were prepared as described in CN108373998B. On Day −1, Embryoid body (EB) formation (Stage 1-1) was carried out by placing individualized hiPSCs in E8 medium containing 10 μM Blebbistatin in T25 flasks on a bellydancer and culture overnight. On Day 0, lateral mesoderm differentiation (Stage 1-2) was initiated by changing the medium to a Stage 1-2 differentiation medium comprising IF-4 basal medium and supplemented with BMP4 (25 ng/mL), VEGF (15 ng/mL), bFGF (0.5 ng/mL) and CHIR99021 (4 μM) for 2 days. On Day 2, lateral mesoderm differentiation (Stage 1-3) continued for 1 day in a Stage 1-3 differentiation medium comprising IF-4 basal medium and supplemented with BMP4 (25 ng/mL), VEGF (50 ng/mL) and bFGF (0.5 ng/mL) and CHIR99021 (1 μM). On Day 3, HE specification (Stage 1-4) was initiated by adding a Stage 1-4 differentiation medium comprising IF-4 basal medium and supplemented with VEGF (15 ng/mL), bFGF (5 ng/mL), XAV939 (5 μM) for 1 day. […] On Day 11 of co-culture, iNK cells were collected and stained with CD56-PE antibody (BD, #555516), the percentage of CD56+ cells was analyzed by flow cytometry. The cytotoxicity of Stage 3 iNK cells towards K562 cells was detected by CFSE/7AAD assay after 4 hr co-culture at E:T of 3:1.

K562 tumor cells = test: Specific lysis of K562 tumor cells by expanded NK cells (CFSE/7-AAD cytotoxicity assay); settings: heparin sodium 0-50 μg/mL in NKSFM; E:T 3:1, 4 hours (FIG. 3C)
Procedure: (§1) The effect of heparin sodium concentration in an exemplary NKSFM on NK cell expansion was also evaluated. NKSFM comprised the following components: IMDM (Sigma): DMEM/F12 (Gibco) (50%: 50%); about 20 μM of Ethanolamine, about 1-50 ng/mL of Na Selenite, about 110 μg/mL of Sodium pyruvate, 0.1-20 μg/mL of Insulin, 1-200 μg/mL of Transferrin, about 1%(v/v) of GlutaMAX-1, 0.1-20 mg/mL of Human serum albumin, 1-400 μM of MTG, about 80 μg/mL of Ascorbic acid, about 1-5 mM of NAM, 4%(v/v) of PLT, and indicated concentration of heparin sodium. PBMCs were isolated by density gradient centrifugation using Ficoll-Paque. […] Cells were collect on Day 13 and stained with CD56-PE and CD3-PerCP-Cy5.5 antibodies, the percentage of CD56^+CD3^− NK cells was analyzed by flow cytometry. The specific lysis of K562 tumor cells by NK cells were assessed by CFSE/7-AAD cytotoxicity assay. […] After incubation for 4 hours, cells were stained with 7-AAD (Live/dead staining) and analyzed with flow cytometry.
The effect of PLT percentage (v/v) in an exemplary NKSFM on NK cell expansion was evaluated. […] Cells were collect on Day 14 and stained with CD56-PE and CD3-PerCP-Cy5.5 antibodies, the percentage of CD56^+CD3^− NK cells was analyzed by flow cytometry. The specific lysis of K562 tumor cells by NK cells were assessed by CFSE/7-AAD cytotoxicity assay. […]

PBNK cells = test: Expansion of PBNK cells from PBMCs (NK cell expansion fold; CD56+CD3− % by flow cytometry); settings: heparin sodium 0-50 μg/mL in NKSFM
Procedure: The effect of the concentration of nicotinamide (NAM) in an exemplary basal medium on NK cell expansion was evaluated. The above basal medium comprised the following components: IMDM (Sigma): RPMI1640 (Gibco) (50%: 50%); about 1.3 ng/mL of Cupric sulfate, about 3 μM of Ferric sulfate, about 0.432 μg/mL of Zinc sulfate, about 1-50 ng/mL of Na Selenite, about 110 μg/mL of Sodium pyruvate, 0.1-20 μg/mL of Insulin, 1-200 μg/mL of Transferrin, about 1%(v/v) of GlutaMAX-1, 0.1-20 mg/mL of HSA, 1-400 μM of MTG, about 80 μg/mL of Ascorbic acid and indicated concentration of NAM. Peripheral blood mononuclear cells (PBMCs) were isolated by density gradient centrifugation using Ficoll-Paque. On Day 0, PBMCs were plated at 1×10^6 cells/mL in a 48-well-plate in the basal medium with NAM (either 0, 1, 2, 2.5, 3, 3.5, 4, or 5 mM) and stimulated with the following reagents for 3 days: immobilized CD16 antibody (Biolegend, 302014) (135 ng/cm^2), IL-2 (700 IU/mL), IL-15 (10 ng/mL) and OK432 (0.01 KE/mL). On day 3, cells were re-suspended in the above basal medium supplemented with IL-2 (700 IU/mL) and IL-15 (10 ng/mL). Fresh medium was added every other day to maintain cell density below 2×10^6 cells/mL. Cells were collect on Day 14 and stained with CD56-PE and CD3-PerCP-Cy5.5 antibodies, the percentage of CD56^+CD3^− NK cells was analyzed by flow cytometry.
as §1, with “Ficoll-Paque. On Day 0, PBMCs were plated at 1×10^6 cells/mL in a 48-well-plate in NKSFM with heparin sodium (0, 0.5, 1, 3, 10, 30, or 50 μg/mL) and stimulated with the following reagents for 3 days: immobilized CD16 antibody (Biolegend, 302014) (135 ng/cm^2), OK432 (0.01 KE/mL), NeoIL-2 (50 ng/mL), IL-12 (10 ng/mL), IL-18 (50 ng/mL).” for “Ficoll-Paque.”
The effect of PLT percentage (v/v) in an exemplary NKSFM on NK cell expansion was evaluated. […]

In the case of “IL-10: interleukin added to Stage 3 expansion and maturation medium”, the “cytotoxicity of iNK cells towards K562 cells” value (K562 cells) is reported as “significantly improve”.
For heparin sodium, the “specific lysis of K562 tumor cells, effect of concentration” value (K562 tumor cells) was “minimal effect”, the “NK cell expansion fold, effect of concentration” value (PBNK cells; Day 13 (FIG. 3A)) was “significantly influences” and the “percentage of CD56^+CD3^− NK cells, effect of concentration” value (PBNK cells; Day 13 (FIG. 3B)) was “minimal effect”.
